Results reported in US12507703B2, “Methods, devices and compositions for preserving human milk” (The Trustees of Princeton University, priority 2023, dated 2025).
Several values for one entry are separate records, joined by “and”; a condition that tells them apart may be missing. Identical values can stand only once.

Each compound was assayed on lipase (assay: Lipase/lipolysis assay (EnzChek Lipase Substrate, quenched BODIPY-fatty acid conjugate) on stored human milk). Details: not given.
Also: test concentration or dose not given here.

Structure (SMILES) | Lipase (RFU)
O.O=P([O-])([O-])OC1C(OP(=O)([O-])[O-])C(OP(=O)([O-])[O-])C(OP(=O)([O-])[O-])C(OP(=O)([O-])[O-])C1OP(=O)([O-])[O-].[Na+].[Na+].[Na+].[Na+].[Na+].[Na+].[Na+].[Na+].[Na+].[Na+].[Na+].[Na+] (centres unmarked) [Phytic acid (dodecasodium hydrate)] | 1018.084 RFU and 920.5233 RFU
CC1=C(C=O)C(C)(C)C[C@H](O[C@@H]2O[C@H](CO)[C@@H](O)[C@H](O)[C@H]2O)C1 [Picrocrocin] | 633.2514 RFU
COc1cc(O)c(C(=O)/C=C/c2ccccc2)c(O)c1 [Pinostrobin chalcone] | 969.4657 RFU
C1CNCCN1.O=C(O)CC(O)(CC(=O)O)C(=O)O [Piperazine (citrate)] | 986.285 RFU
CC(=O)CCc1ccc2c(c1)OCO2 [Piperonyl acetone] | 718.0889 RFU
C=C(C[C@@H](O)[C@](C)(O)[C@H]1CC[C@@]2(O)C3=CC(=O)[C@@H]4C[C@@H](O)[C@@H](O)C[C@]4(C)[C@H]3CC[C@]12C)C(C)C [Polyporusterone B] | 1175.382 RFU
NCc1[nH]cc(CCC(=O)O)c1CC(=O)O [Porphobilinogen] | 1154.849 RFU
O=C([O-])[C@H](O)[C@@H](O)[C@H](O)[C@H](O)CO.[K+] [Potassium Gluconate] | 966.4096 RFU and 888.9701 RFU
O=C([O-])O.[K+] [Potassium bicarbonate] | 726.638 RFU
C/C=C/C=C/C(=O)[O-].[K+] [Potassium sorbate] | 727.0693 RFU and 1055.671 RFU
Oc1cc(O)c2c(c1)OC1(c3ccc(O)c(O)c3)Oc3cc(O)c4c(c3C2C1O)OC(c1ccc(O)c(O)c1)C(O)C4 (centres unmarked) [Procyanidin A1] | 1206.886 RFU
Oc1cc(O)c2c(c1)O[C@H](c1ccc(O)c(O)c1)[C@H](O)[C@H]2c1c(O)cc(O)c2c1O[C@H](c1ccc(O)c(O)c1)[C@H](O)C2 [Procyanidin B2] | 808.3168 RFU
CCCCC[C@H](O)/C=C/[C@H]1C(=O)C[C@H](O)[C@@H]1C/C=C\CCCC(=O)O [Prostaglandin D2] | 071064.5 RFU
CCCCC[C@H](O)/C=C/[C@H]1[C@H](O)CC(=O)[C@@H]1CCCCCCC(=O)O [Prostaglandin E1] | 787.5664 RFU
CCCCC[C@H](O)/C=C/[C@H]1[C@H](O)CC(=O)[C@@H]1C/C=C\CCCC(=O)O [Prostaglandin E2] | 1264.564 RFU
O=C(O)c1ccc(O)c(O)c1 [Protocatechuic acid] | 981.5941 RFU and 972.5566 RFU
COc1ccc(-c2oc3c(OC)c(O)cc(O)c3c(=O)c2O)cc1 [Prudomestin] | 894.1495 RFU
COc1cc(O)c2c(=O)c(-c3ccc(O)cc3)coc2c1 [Prunetin] | 865.5495 RFU
CC(C)=CCc1cc2c(cc1O)oc(=O)c1c3ccc(O)cc3oc21 [Psoralidin] | 1084.87 RFU
CC(C)=C1CC[C@@H](C)CC1=O [Pulegone] | 791.7693 RFU and 1146.187 RFU
O=C(O)c1cccc(O)c1O [Pyrocatechuic acid] | 896.9439 RFU
O=P(O)(O)OP(=O)(O)O [Pyrophosphate] | 1218.619 RFU and 873.0451 RFU
O=Cc1ccc[nH]1 [Pyrrole-2-carboxaldehyde] | 882.4774 RFU
O=c1c(O)c(-c2ccc(O)c(O)c2)oc2cc(O)c(O)c(O)c12 [Quercetagetin] | 891.7095 RFU

Structure (SMILES) | Lipase (RFU)
C[C@@H]1O[C@@H](O[C@H]2[C@H](Oc3c(-c4ccc(O)c(O)c4)oc4cc(O)cc(O)c4c3=O)O[C@H](CO)[C@@H](O)[C@@H]2O)[C@H](O)[C@H](O)[C@H]1O [Quercetin 3-O-neohesperidoside] | 838.5308 RFU
O=c1c(O[C@@H]2O[C@H](CO[C@@H]3O[C@H](CO)[C@@H](O)[C@H](O)[C@H]3O)[C@@H](O)[C@H](O)[C@H]2O)c(-c2ccc(O)c(O)c2)oc2cc(O)cc(O)c12 [Quercetin 3-gentiobioside] | 676.8795 RFU
O.O.O=c1c(O)c(-c2ccc(O)c(O)c2)oc2cc(O)cc(O)c12 [Quercetin (dihydrate)] | 1081.937 RFU
O=c1c(O)c(-c2ccc(O)c(O)c2)oc2cc(O[C@@H]3O[C@H](CO)[C@@H](O)[C@H](O)[C@H]3O)cc(O)c12 [Quercimeritrin] | 857.409 RFU
O=C(O)c1ccc2ccccc2n1 [Quinoline-2-carboxylic acid] | 994.8984 RFU
CC(=O)CCc1ccc(O[C@@H]2O[C@H](CO)[C@@H](O)[C@H](O)[C@H]2O)cc1 [Raspberry ketone glucoside] | 1167.769 RFU
O=CCCO [Reuterin] | 1125.363 RFU
O=C(O)c1cc(O)c2c(c1)C(=O)c1cccc(O[C@@H]3O[C@H](CO)[C@@H](O)[C@H](O)[C@H]3O)c1C2=O [Rhein 8-Glucoside] | 942.9082 RFU
C=C(C)[C@H]1Cc2c(ccc3c2O[C@@H]2COc4cc(OC)c(OC)cc4[C@@H]2C3=O)O1 [Rotenone] | 542.204 RFU
CC(C)(O)[C@@H]1Cc2cc3ccc(=O)oc3cc2O1 [S-(+)-Marmesin] | 984.7966 RFU
Nc1ncnc2c1ncn2[C@@H]1O[C@H](CSCC[C@H](N)C(=O)O)[C@@H](O)[C@H]1O [SAH] | 641.7279 RFU
CC1=C(C=O)C(C)(C)CC=C1 [Safranal] | 1026.753 RFU and 1118.736 RFU
CC1=C2[C@H]3OC(=O)[C@@H](C)[C@@H]3CC[C@@]2(C)C=CC1=O [Santonin] | 895.7689 RFU
CC1(C)CCC[C@]2(C)[C@H]3CC(=O)O[C@]3(C)CC[C@@H]12 [Sclareolide] | 845.6458 RFU
C[Se]C[C@H](N)C(=O)O [Se-Methylselenocysteine] | 889.6084 RFU
CCC(C)N (centres unmarked) [Sec-Butylamine] | 784.9928 RFU
COc1cc(C[C@@H](CO)[C@H](CO)Cc2ccc(O)c(OC)c2)ccc1O [Secoisolariciresinol] | 1112.005 RFU
OC[C@@]12OC[C@@H](O1)[C@@H](O)[C@@H](O)[C@@H]2O [Sedoheptulosan] | 1068.783 RFU
O=C(O)c1cc(O)c2c(c1)[C@H]([C@H]1c3cc(C(=O)O)cc(O)c3C(=O)c3c(O[C@@H]4O[C@H](CO)[C@@H](O)[C@H](O)[C@H]4O)cccc31)c1cccc(O[C@@H]3O[C@H](CO)[C@@H](O)[C@H](O)[C@H]3O)c1C2=O [Sennoside A] | 1002.323 RFU
Oc1ccc2c(c1)OCO2 [Sesamol] | 995.7089 RFU
COc1cc([C@@H]2Oc3c(O)cc([C@H]4Oc5cc(O)cc(O)c5C(=O)[C@@H]4O)cc3[C@H]2CO)ccc1O [Silychristin] | 921.666 RFU
COc1cc(/C=C/C(=O)OCC[N+](C)(C)C)cc(OC)c1O.N#C[S-] [Sinapine (thiocyanate)] | 1052.349 RFU
COc1cc(/C=C/C(=O)OCC[N+](C)(C)C)cc(OC)c1O [Sinapine] | 1084.597 RFU
C=CC/C(=N/OS(=O)(=O)[O-])S[C@@H]1OC(CO)[C@@H](O)C(O)C1O.[K+] (some centres unmarked) [Sinigrin] | 1002.884 RFU

Same assay, conditions: (hydrochloride)

Structure (SMILES) | Lipase (RFU)
Cc1ncc(CO)c(CO)c1O.Cl [Pyridoxine (hydrochloride)] | 911.6428 RFU and 799.8007 RFU

Same assay, conditions: (monohydrate)

Structure (SMILES) | Lipase (RFU)
C[C@H](O)[C@H](O)[C@@H](O)[C@@H](O)C=O.O [Rhamnose (monohydrate)] | 978.8722 RFU and 922.0222 RFU
